This assay is described as follows: Compound was evaluated for inhibition of specifically bound [3H]- cocaine (2.7 nM) against Dopamine transporter in cynomolgus monkeys.

One compound from BindingDB's records for doi:10.1021/jm00109a029 (Research Biochemicals, 1991) can be followed below.

pIC50: −log10 of the molar value.

`COC(=O)C1C2CCC(C[C@@H]1c1ccc(F)cc1)N2` (stereo partly specified): the pIC50 – broadly, the negative decadic logarithm of the IC50, by convention in mol/L – was 7.44.
